Where “and” joins values, the source holds several entries; their conditions need not be identical. Equal entries are not always repeated. Entries after “also recorded” stand apart in the source; their conditions may differ. Structures can show the parent of a compound that is named as a salt.
Experiments:
Adult, male, Baboons [1] = experiment: Effects on clinical chemistry parameters in male baboons; type: in vivo; conditions: for serum glucose: changes within the normal range; for anionic gap: day 12 of treatment and 7 days after treatment (washout); for Alkaline phosphatase (ALP): following treatment; for serum cholesterol: not statistically significant, within the normal range
Excerpt: (§1) The samples analyzed were sera taken on the day of first treatment before being given test article (day 0), after 12 days of treatment (day 12) and 7 days after the last treatment (end or wash-out).

Adult, male, Baboons [2] = experiment: Effects of Clomids on serum testosterone in male baboons; conditions: for Serum Testosterone Levels, 6 days, mean / Serum Testosterone Levels, 12 days, mean / Serum Testosterone Levels, wash-out, mean / Serum Testosterone Levels, baseline, mean / Serum Testosterone Levels, 0 day, mean: group mean of 3 baboons; for Serum Testosterone Levels, 6 days, mean / Serum Testosterone Levels, 6 days: 1.5 mg/kg daily, day 6; for Serum Testosterone Levels, 12 days, mean: 1.5 mg/kg for 12 days; for Serum Testosterone Levels, 12 days, mean / Serum Testosterone Levels, 12 days: day 12; for Serum Testosterone Levels, wash-out, mean / Serum Testosterone Levels, wash-out: 7 days after the last treatment; for Serum Testosterone Levels, baseline, mean: before treatment; for Serum Testosterone Levels, 0 day, mean / Serum Testosterone Levels, 0 day: day 0, before first dose; for Serum Testosterone Levels, 6 days / Serum Testosterone Levels, 12 days / Serum Testosterone Levels, wash-out / Serum Testosterone Levels, baseline / Serum Testosterone Levels, 0 day: individual baboon; for Serum Testosterone Levels, 6 days / Serum Testosterone Levels, 12 days: 1.5 mg/kg; for Serum Testosterone Levels, 12 days / effect on total serum testosterone: 1.5 mg/kg for 12 consecutive days; for Serum Testosterone Levels, baseline: baseline Dec. 3, 2001, before treatment; for effect on total serum testosterone: male baboons
Excerpt: as §1

men = conditions: cited from earlier work
[3] = Ernst et al.; cited from earlier work
Adult, male, Baboons [4] = experiment: Effects on body weight and serum LH, FSH, PRL in male baboons; type: in vivo; conditions: during the study
Excerpt: as §1

[5] = cited from earlier work

Row | Structure (SMILES) | serum glucose (Adult, male, Baboons [1]) | anionic gap (Adult, male, Baboons [1]) | Serum Testosterone Levels, 6 days, mean (Adult, male, Baboons [2]) | Serum Testosterone Levels, 12 days, mean (Adult, male, Baboons [2]) | Serum Testosterone Levels, wash-out, mean (Adult, male, Baboons [2]) | Serum Testosterone Levels, baseline, mean (Adult, male, Baboons [2]) | Serum Testosterone Levels, 0 day, mean (Adult, male, Baboons [2]) | estrogenic / antiestrogenic activity [3] | Alkaline phosphatase (ALP) (Adult, male, Baboons [1]) | red blood cell population (Adult, male, Baboons [1]; in vivo) | serum cholesterol (Adult, male, Baboons [1]) | effect on total serum testosterone (Adult, male, Baboons [2]) | Serum Testosterone Levels, 6 days (Adult, male, Baboons [2]) | Serum Testosterone Levels, 12 days (Adult, male, Baboons [2]) | Serum Testosterone Levels, wash-out (Adult, male, Baboons [2]) | Serum Testosterone Levels, baseline (Adult, male, Baboons [2]) | Serum Testosterone Levels, 0 day (Adult, male, Baboons [2]) | also measured
1 | CCN(CC)CCOc1ccc(C(=C(Cl)c2ccccc2)c2ccccc2)cc1 [Clomid, clomiphene citrate] | increase | lower values than the Enclomid group | 559.3 ng/dL | 588.7 ng/dL | 203.6 ng/dL | 111.5 ng/dL | 161.4 ng/dL | – | – | – | – | – | – | – | – | – | – | variability of total testosterone levels (coefficients of variations) (Adult, male, Baboons [2]; day 6 and later, compared to animals receiving Enclomid): more variable total testosterone levels; Serum Testosterone Levels, 6 days (Adult, male, Baboons [2]; listed as CLO): 940.97 ng/dL and 585.92 ng/dL and 151.12 ng/dL; Serum Testosterone Levels, 12 days (Adult, male, Baboons [2]; listed as CLO): 891.5 ng/dL and 555.6 ng/dL and 318.9 ng/dL; Serum Testosterone Levels, wash-out (Adult, male, Baboons [2]; listed as CLO): 150.9 ng/dL and 316.3 ng/dL and 143.6 ng/dL; Serum Testosterone Levels, baseline (Adult, male, Baboons [2]; listed as CLO): 79.01 ng/dL and 97.55 ng/dL and 158.06 ng/dL; Serum Testosterone Levels, 0 day (Adult, male, Baboons [2]; listed as CLO): 76.15 ng/dL and 305.24 ng/dL and 102.94 ng/dL; LH, FSH, and testosterone after 2 months (men; Guay et al. 1995, 2 months): increase in LH, FSH, and testosterone; erectile dysfunction (men; Guay et al. 1995, 2 months): no effects on erectile dysfunction; FSH, LH in young and old men (men; Tenover et al. 1987): increased in FSH, LH; free and total testosterone in men (men; Tenover et al. 1987): increases in free and total testosterone; semen quality or fertility (men; WHO study, 6 months of treatment): no changes in semen quality or fertility; side effects (men; approved cis/trans mixture): blurred vision, abdominal discomfort, gynecomastia, testicular tumors, vasomotor flushes, nausea, and headaches; genotoxicity and tumor enhancement (men; other studies): genotoxic and tumor enhancement effects
2 | CCN(CC)CCOc1ccc(/C(=C(\Cl)c2ccccc2)c2ccccc2)cc1 [Enclomid, trans-clomiphene] | no increases with treatment | raised this parameter towards normal values | 1144.4 ng/dL | 1088.5 ng/dL | 325.8 ng/dL | 134.0 ng/dL | 105.0 ng/dL | antiestrogenic | decreased in value | substantive effects | tended to decrease | significant increases in total serum testosterone; also recorded: more effective than Clomid or Zuclomid | 1223.8 ng/dL and 1128.2 ng/dL and 1081.1 ng/dL | 633.6 ng/dL and 1466 ng/dL and 1166 ng/dL | 307.2 ng/dL and 399.2 ng/dL and 271 ng/dL | 64.57 ng/dL and 166.86 ng/dL and 170.45 ng/dL | 74.96 ng/dL and 133.59 ng/dL and 106.47 ng/dL | serum prolactin (PRL) (Adult, male, Baboons [4]): decrease; platelets (Adult, male, Baboons [1]; 12-day treatment, values stayed within the normal range): clear effect; serum creatinine (Adult, male, Baboons [1]; between day 0 and Day 12): no differences; counts of lymphocytes and eosinophiles (Adult, male, Baboons [1]; in vivo): raising the counts; count and percent lymphocytes (Adult, male, Baboons [1]; mean percent remains in the normal range): increase; percent of granulocytes in the blood (Adult, male, Baboons [1]; very strong after the 7-day washout, below the normal range): strong effect; change of total serum testosterone after cessation of treatment (Adult, male, Baboons [2]; between day 12 and day 18 (washout)): significant drop; total serum testosterone on days 6 and 12 compared with baseline or day 0 (FIG. 3 time course) (Adult, male, Baboons [2]; days 6 and 12 vs baseline or day 0): significantly and statistically raised total serum testosterone; clearance from the circulation (Adult, male, Baboons [2]; inferred from testosterone drop after cessation): readily cleared from the circulation
3 | CCN(CC)CCOc1ccc(/C(=C(/Cl)c2ccccc2)c2ccccc2)cc1 [Zuclomid, cis-clomiphene] | increase | lower values than the Enclomid group | 178.5 ng/dL | 357.9 ng/dL | 498.1 ng/dL | 170.6 ng/dL | 394.2 ng/dL | more potent and more estrogenic | not elevated | substantive effects | tended to increase | did not raise total serum testosterone to any extent; also recorded: not effective | 137.51 ng/dL and 169.98 ng/dL and 227.95 ng/dL | 314.5 ng/dL and 406.1 ng/dL and 353.0 ng/dL | 359.7 ng/dL and 860.5 ng/dL and 274.1 ng/dL | 124.84 ng/dL and 104.66 ng/dL and 282.29 ng/dL | 210.4 ng/dL and 67.37 ng/dL and 904.82 ng/dL | half-life ([5]; relative to the other isomer in Clomid): longer half-life; residual blood levels following a single dose ([5]; reported in literature): in excess of one month; AST (Adult, male, Baboons [1]; in vivo): lowering; hematocrit (Adult, male, Baboons [1]; in vivo): substantive effects
